Test results: patent publication US20170343551A1, “METHOD OF DIAGNOSING AND TREATING PROSTATE CANCER” (Board of Supervisors of Louisiana State University and …, priority 2016, published 2017)

What was measured:
Assay type in all cases: cell-based
PC3 cells [1] = assay: Cell migration ability of PC3 cells; conditions: FIG. 8C
From the text: (§1) FIGS. 8A-8C show SPDEF is subjected to DNA methylation regulation.
(§2) Both culture and socioeconomic status can affect epigenetic processes; and the epigenetic modification effects can extend not only throughout the life course, but also to generations followed. DNA methylation and histone modifications are two common epigenetic mechanisms that control the expression of affected genes. […] Concomitant with the increased levels of SPDEF, 5-aza treatments reduced the cell migration and invasion ability of PC3 cells. Additionally, the inventors have also examined the distribution of CpG islands in the proximal promoter region of SPDEF. […] Expected treatment levels include, for example, azacytidine 2.5 mg/kg and decitabine 2.5 mg/kg.

PC3 cells [2] = assay: Invasion ability of PC3 cells
TMS1 in PC3 cells = assay: TMS1 expression (methylation-repressed positive control gene) in treated PC3 cells; conditions: known methylation-repressed gene as positive control, FIG. 8A
From the text: as §1

SPDEF mRNA in PC3 cells = assay: SPDEF (PDEF) mRNA expression by RT-PCR in treated PC3 cells; conditions: FIG. 8A/8B
From the text: as §1, §2

Structure (SMILES) | cell migration ability (PC3 cells [1]) | invasion ability (PC3 cells [2]) | expression of TMS1 (TMS1 in PC3 cells) | expression of SPDEF (PDEF) mRNA (SPDEF mRNA in PC3 cells)
Nc1ncn([C@H]2C[C@H](O)[C@@H](CO)O2)c(=O)n1 [5-Aza, 5-aza-2′-deoxycytidine] | reduced | reduced | induced | induced
CCCC(CCC)C(=O)O [VPA, valproic acid] |  |  |  | did not alter
